In the NIST ThermoML archive (doi:10.1016/j.jct.2009.03.009):

Experiments:
[1] = xn = mol fraction of the nth substance listed; conditions: 313.15 K, 101 kPa, Liquid; for speed of sound: Sing-around technique in a fixed-path interferometer; for mass density: Vibrating tube method
[2] = refractive index (Na D-line) (dimensionless); xn = mol fraction of the nth substance listed; conditions: 313.15 K, 101 kPa, Liquid, Standard Abbe refractometry

CCCCCC [hexane] + Cc1ccccc1
Conditions | mass density, [1] [kg/m3] | refractive index, [2] | speed of sound, [1] [m/s]
x1 = 0.1032 | 822.9 | 1.47028 | 1208.5
x1 = 0.198 | 800.5 | 1.4571 | 1180.8
x1 = 0.2997 | 777.5 | 1.44367 | 1153.5
x1 = 0.4027 | 755.1 | 1.43045 | 1127.5
x1 = 0.5005 | 734.6 | 1.41844 | 1104.6
x1 = 0.5998 | 714.7 | 1.40685 | 1083.1
x1 = 0.6987 | 695.5 | 1.3956 | 1063.3
x1 = 0.7984 | 677 | 1.38476 | 1044.5
x1 = 0.9042 | 658.1 | 1.37387 | 1026.3
x1 = 1 | 641.4 | 1.36411 | 1010.3

CCCCCC [hexane] + c1ccccc1
x1 = 1
Conditions | mass density [kg/m3] | refractive index | speed of sound [m/s]
[1] | 641.4 | – | 1010.3
[2] | – | 1.36411 | –

CCCCCCCCC [nonane] + CCc1ccccc1
Conditions | mass density, [1] [kg/m3] | refractive index, [2] | speed of sound, [1] [m/s]
x1 = 0.0527 | 837.7 | 1.47759 | 1245.4
x1 = 0.1043 | 827.1 | 1.47111 | 1234.9
x1 = 0.2032 | 808.1 | 1.45968 | 1217.6
x1 = 0.3009 | 791 | 1.44884 | 1203.2
x1 = 0.4018 | 774.9 | 1.43899 | 1190.7
x1 = 0.5009 | 760.3 | 1.43055 | 1180.1
x1 = 0.6003 | 746.9 | 1.42241 | 1171.2
x1 = 0.7012 | 734.4 | 1.41482 | 1163.5
x1 = 0.8044 | 722.4 | 1.40792 | 1156.7
x1 = 0.9026 | 712 | 1.40178 | 1151.1
x1 = 0.9519 | 707 | 1.39883 | 1148.8
x1 = 1 | 702.2 | 1.39609 | 1146.4

CCCCCCCCC [nonane] + Cc1ccccc1
Conditions | mass density, [1] [kg/m3] | refractive index, [2] | speed of sound, [1] [m/s]
x1 = 0.1045 | 823.2 | 1.4692 | 1217.6
x1 = 0.2019 | 802.9 | 1.45691 | 1200.3
x1 = 0.3002 | 785 | 1.44571 | 1187
x1 = 0.4021 | 768.7 | 1.43571 | 1176
x1 = 0.502 | 754.5 | 1.42674 | 1167.7
x1 = 0.601 | 741.9 | 1.41934 | 1161.1
x1 = 0.696 | 731 | 1.41289 | 1156.2
x1 = 0.8032 | 719.9 | 1.40639 | 1151.8
x1 = 0.9022 | 710.6 | 1.40097 | 1148.9
x1 = 0.9501 | 706.4 | 1.3985 | 1147.7
x1 = 1 | 702.2 | 1.39609 | 1146.4

CCCCCCCCC [nonane] + c1ccccc1
Conditions | mass density, [1] [kg/m3] | refractive index, [2] | speed of sound, [1] [m/s]
x1 = 0.0535 | 839.7 | 1.47693 | 1212.1
x1 = 0.1025 | 825.4 | 1.46801 | 1199
x1 = 0.2013 | 800.8 | 1.45327 | 1179.5
x1 = 0.3006 | 780.6 | 1.44079 | 1166.1
x1 = 0.3997 | 763.8 | 1.43104 | 1157.2
x1 = 0.5 | 749.5 | 1.42229 | 1151.4
x1 = 0.5992 | 737.3 | 1.41549 | 1147.7
x1 = 0.7052 | 726.2 | 1.40945 | 1145.9
x1 = 0.8034 | 717.2 | 1.40436 | 1145.2
x1 = 0.9018 | 709.3 | 1.3999 | 1145.6
x1 = 0.9499 | 705.7 | 1.39796 | 1145.9
x1 = 1 | 702.2 | 1.39609 | 1146.4

CCCCCCCC [octane] + CCc1ccccc1
x1 = 1
Conditions | mass density [kg/m3] | refractive index | speed of sound [m/s]
[1] | 686.3 | – | 1110.6
[2] | – | 1.38769 | –

CCCCCCCC [octane] + Cc1ccccc1
Conditions | mass density, [1] [kg/m3] | refractive index, [2] | speed of sound, [1] [m/s]
x1 = 0.0542 | 834.6 | 1.47708 | 1226.2
x1 = 0.1022 | 823.4 | 1.46982 | 1214.8
x1 = 0.2014 | 802 | 1.45667 | 1194.1
x1 = 0.3037 | 782 | 1.44463 | 1176.2
x1 = 0.3965 | 765.5 | 1.43362 | 1162.3
x1 = 0.4983 | 749.1 | 1.42473 | 1149.7
x1 = 0.5986 | 734.3 | 1.41567 | 1139.1
x1 = 0.7016 | 720.5 | 1.4075 | 1130
x1 = 0.8007 | 708.4 | 1.40046 | 1122.5
x1 = 0.902 | 696.6 | 1.39376 | 1116.1
x1 = 0.9493 | 691.6 | 1.39079 | 1113.1
x1 = 1 | 686.3 | 1.38769 | 1110.6

CCCCCCCC [octane] + c1ccccc1
Conditions | mass density, [1] [kg/m3] | refractive index, [2] | speed of sound, [1] [m/s]
x1 = 0.0541 | 839.6 | 1.4762 | 1210.5
x1 = 0.1014 | 825.5 | 1.46817 | 1196.3
x1 = 0.202 | 799.3 | 1.45259 | 1172.2
x1 = 0.3022 | 777.2 | 1.4384 | 1154.3
x1 = 0.404 | 758.4 | 1.42757 | 1140.9
x1 = 0.5023 | 742.2 | 1.41799 | 1131
x1 = 0.6011 | 728.3 | 1.41072 | 1123.7
x1 = 0.7087 | 714.9 | 1.4035 | 1118
x1 = 0.8051 | 704.4 | 1.3977 | 1114.4
x1 = 0.9015 | 695 | 1.39253 | 1112.1
x1 = 0.9514 | 690.5 | 1.39004 | 1111.2
x1 = 1 | 686.3 | 1.38769 | 1110.6

Cc1ccccc1 [toluene] + CCCCCC
x2 = 0
Conditions | mass density [kg/m3] | refractive index | speed of sound [m/s]
[1] | 848 | – | 1240.7
[2] | – | 1.48464 | –
